In patent EP1357114A1, “Substituted pyrimidin-2,4(1H,3H)-diones as inhibitors of Matrix Metalloproteinases (MMP)” (IBFB GmbH Privates Institut für biomedizinische Forschung …, priority 2002, dated 2003):

Tests used:
[1] = target: T1, MMP-2 (Homo sapiens, UniProt P08253); experiment: Quantitative fluorescence assay for matrix metalloproteinases (cleavage of Mca-Pro-Leu-Gly-Leu-Dpa-Ala-Arg-NH2); format: biochemical
T1 construct: endogenous in cells; host or cells: cultured human dermal fibroblasts (secreted into conditioned medium)
T1 sequence (P08253 110-660): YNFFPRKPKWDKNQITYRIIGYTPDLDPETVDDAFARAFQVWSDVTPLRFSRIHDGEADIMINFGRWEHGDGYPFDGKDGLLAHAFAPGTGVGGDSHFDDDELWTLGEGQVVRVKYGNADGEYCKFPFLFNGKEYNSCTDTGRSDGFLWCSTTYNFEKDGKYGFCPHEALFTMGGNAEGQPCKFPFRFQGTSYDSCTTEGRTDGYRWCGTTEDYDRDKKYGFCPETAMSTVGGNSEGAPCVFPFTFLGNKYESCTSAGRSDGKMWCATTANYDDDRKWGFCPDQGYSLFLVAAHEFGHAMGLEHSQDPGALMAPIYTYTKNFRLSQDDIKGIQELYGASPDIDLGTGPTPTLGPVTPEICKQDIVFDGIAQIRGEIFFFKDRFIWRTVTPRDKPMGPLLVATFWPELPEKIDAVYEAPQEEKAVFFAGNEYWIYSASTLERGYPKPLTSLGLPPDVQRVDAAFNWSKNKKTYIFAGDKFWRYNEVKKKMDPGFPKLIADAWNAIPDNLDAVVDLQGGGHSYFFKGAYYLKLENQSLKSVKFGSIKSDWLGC
Protocol: MMP-2 (Gelatinase) wird von kultivierten dermalen Fibroblasten in beträchtlichen Mengen in das Kulturmedium abgegeben und ist daher leicht zugänglich. Die sezernierte und inaktive Proform des Enzyms wird durch Behandlung mit organischen Quecksilberverbindungen in die enzymatisch aktive Form überführt.
Hierzu werden humane dermale Fibroblasten nach etablierten Standardmethoden gewonnen und kultiviert. Aus dem konditionierten Zellmedium wird humane MMP-2 durch folgende Methode gewonnen: 500 ml Zellmedium werden 30 min. bei 10 000 g zentrifugiert und der Überstand mit einem Vol. 2-fach Bindungspuffer (40 mM Tris-HCI pH 7,5 , 10 mM CaCl2, 1 M NaCI, 0,2% (v/v) Triton X-100) versetzt. Dazu gibt man 6 ml Gelatine-Agarose, welche mit Bindungspuffer äquilibriert wurde, und schüttelt für 1 Std. auf Eis. Die beladene Gelatine-Agarose wird in eine Säule überführt und mit mindestens 10 Vol. Bindungspuffer proteinfrei gespült. Die Elution der gebundenen MMP-2 erfolgt mit 2 Gelvolumen Bindungspuffer plus 5% (v/v) DMSO. Das Eluat enthält die humane MMP-2 als inaktives Zymogen in stark angereicherter Form. Fremdproteine sind TIMP-2 und Fibronektin; das letztere kann durch eine Gelfiltration an Sephacryl S-200 abgetrennt werden. Laufpuffer ist 100 mM Tris-HCI pH 7,5, 10 mM CaCl2, 100 mM NaCI, 0,05% (v/v) Brij 35. Die inaktive humane MMP-2 wird durch zweistündige Inkubation bei 37 °C in Gegenwart von 1 mM p-Aminophenylmercuric Acetate (APMA) aktiviert. Zur Beseitigung von APMA nach Aktivierung wird die Probe an Sephadex G-25 in Laufpuffer (s.o.) filtriert.
(§1) Durch enzymatische Spaltung des synthetischen Substrates Mca-Pro-Leu-Gly-Leu-Dpa-Ala-Arg-NH2 durch die jeweilige Kollagenase, wird die fluoreszente Gruppe Mca ((7-Methoxycoumarin-4-yl)acetyl) vom internen Quencher Dpa ((N-3-(2,4-dinitrophenyl)-L-2,3-diaminopropienyl) getrennt. Dabei erfolgt eine starke Zunahme der Fluoreszenz im Messansatz, die am Fluorimeter quantifiziert werden kann (λex 328 nm, λem 393 nm) und innerhalb der ersten Minuten linear verläuft. Eine gewisse Spezifität des Tests für Matrix-Metalloproteinasen ergibt sich einerseits aus der Aminosäuresequenz -Pro-Leu-Gly-Leu- im Substrat und andererseits durch die gewählten Inkubationsbedingungen. Matrix-Metalloproteinasen spalten das Substrat an der Bindung Gly-Leu. Gemessen wird die proteolytische Restaktivität vorinkubierter Ansätze von Enzym und Inhibitor, wobei die Substrat- und Enzymkonzentration konstant gehalten und die Inhibitorkonzentration variiert wurde. Es wurden für jeden getesteten Inhibitor drei Messreihen mit unterschiedlicher Substratkonzentration aufgenommen. Aus der zeitabhängigen Fluoreszenzzunahme wird die Enzymaktivität in Fluoreszenzeinheiten pro min berechnet. Die Bestimmung der Ki-Werte erfolgte graphisch nach der Methode von DIXON (1953) durch Auftragung der reziproken Reaktionsgeschwindigkeit 1/v (y-Achse) gegen Inhibitorkonzentration (x-Achse).
(§2) 1984 µl Messpuffer (100mM Tris-HCI pH 7,5, 100 mM NaCI, 10 mM CaCl2, 0,05% Brij 35 bzw. 50 mM MES-NaOH, pH 6.0, 10 mM CaCl2, 100 mM NaCI, 0.05% Brij 35 im Fall der KaDo MMP-3) 2 µl Inhibitor, gelöst in DMSO, bzw. DMSO allein (nichtinhibierender Ansatz) 4 µl Enzym • 5 min. Vorinkubation des Enzym-Inhibitor-Gemischs bei Raumtemperatur unter Rühren • Start der Reaktion mit 10 µl Substrat gelöst in DMSO • Aufzeichnung der zeitabhängigen Fluoreszenzzunahme über 2 - 10 min.

[2] = target: T2, katalytische Domäne der MT1-MMP (Homo sapiens, UniProt P50281); experiment: as above; format: biochemical
T2 construct: Die katalytische Domäne der humanen MT1-MMP wurde nach den Angaben in folgender Publikation kloniert; made in house
Protocol: Die katalytische Domäne der humanen MT1-MMP wurde nach den Angaben in folgender Publikation kloniert: Lichte A, Kolkenbrock H, Tschesche H: The recombinant catalytic domain of membrane-type matrix metalloproteinase-1 (MT1-MMP) induces activation of progelatinase A and progelatinase A complexed with TIMP-2. FEBS letters (1996), 397, 277-282.
Nach Rückfaltung des Enyzms, Autoprozessierung zur aktiven Form und Gelfiltration an Sephadex G-50 (Laufpuffer 20 mM Tris-HCI pH 7,5, 5 mM CaCl2, 100 mM NaCI, 0,1 mM ZnCl2, 0,02% (w/v) Natriumazid) erhielten wir ein zu 95% reines Präparat.
as §1, §2

[3] = result in words, concentration not given

SMILES | MMP-2 Hemmung ([1]; bei 10 µM) [% Hemmung bei 10 µM] | MT1-MMP Hemmung ([2]; bei 10 µM) [% Hemmung bei 10 µM] | other results
O=c1[nH]c2ccccc2c(=O)n1CC(S)CS (racemic) [Beispiel 1, (R,S)-3-(2,3-Dimercaptopropyl)chinazolin-2,4-(1H,3H)dion] | 70 | 40 | –
O=c1[nH]c2cc(Cl)ccc2c(=O)n1CC(S)CS (racemic) [Beispiel 3, (R,S)-7-Chlor-3-(2,3-dimercaptopropyl)chinazolin-2,4-(1H,3H)dion] | 90 | 73 | –
O=c1[nH]c2ccc(Cl)cc2c(=O)n1CC(S)CS (racemic) [Beispiel 4, (R,S)-6-Chlor-3-(2,3-dimercaptopropyl)chinazolin-2,4-(1H,3H)dion] | 50 | 60 | –
Cc1cccc2[nH]c(=O)n(CC(S)CS)c(=O)c12 (racemic) [Beispiel 5, (R,S)-3-(2,3-Dimercaptopropyl)-5-methyl-chinazolin-2,4-(1H,3H)dion] | 50 | 80 | –
COc1cc2[nH]c(=O)n(CC(S)CS)c(=O)c2cc1OC (racemic) [Beispiel 7, (R,S)-3-(2,3-Dimercaptopropyl)-6,7-dimethoxy-chinazolin-2,4-(1H,3H)dion] | – | – | MMP-2 Hemmung ([1]; bei 1 µM): 20% Hemmung bei 1 µM; MT1-MMP Hemmung [2, 3]: keine Hemmung
O=C(NCc1ccccc1)c1ccc2c(=O)n(CC(S)CS)c(=O)[nH]c2c1 (racemic) [Beispiel 8, (R,S)-N-Benzyl-3-(2,3-dimercaptopropyl)-2,4-dioxo-1,2,3,4-tetrahydrochinazolin-7-carboxamide] | – | – | MMP-2 Hemmung ([1]; bei 5 µM): 50% Hemmung bei 5µM; MT1-MMP Hemmung ([2]; bei 5 µM): 30% Hemmung bei 5 µM
O=c1[nH]c2ccsc2c(=O)n1CC(S)CS (racemic) [Beispiel 9, (R,S)-3-(2,3-Dimercaptopropyl)thieno[3,2-d]pyrimidin-2,4(1H,3H)-dion] | – | – | MMP-2 Hemmung ([1]; bei 3 µM): 50% Hemmung bei 3 µM; MT1-MMP Hemmung ([2]; bei 3 µM): 50% Hemmung bei 3 µM
O=c1[nH]c2sc3c(c2c(=O)n1CC(S)CS)CCCC3 (racemic) [Beispiel 10, (R,S)-3-(2,3-Dimercaptopropyl)-5,6,7,8-tetrahydro[1]benzothieno[2,3-d]pyrimidin-2,4(1H,3H)-dion] | 52 | 42 | –
O=c1[nH]c2sc(-c3ccccc3)cc2c(=O)n1CC(S)CS (racemic) [Beispiel 11, (R,S)-3-(2,3-Dimercaptopropyl)-6-phenylthieno[2,3-d]pyrimidin-2,4(1H,3H)-dion] | – | – | MMP-2 Hemmung ([1]; bei 1 µM): 15% Hemmung bei 1 µM; MT1-MMP Hemmung [2, 3]: Keine Hemmung
